{"source": "paper PMC8322648", "about": "“Brevibacillin 2V Exerts Its Bactericidal Activity via Binding to Lipid II and Permeabilizing Cellular Membranes” (Frontiers in Microbiology, 2021)", "key": {"HepG2": {"system": "HepG2", "conditions": "Figure 1, ref Zhao et al., 2021; cited from earlier work", "from_the_text": "(§1) A vast number of bacterial non-ribosomally produced peptides (NRPs) have shown strong antimicrobial activity against pathogenic bacteria ([Cochrane et al., 2014]; [Cociancich et al., 2015]; [Hamamoto et al., 2015]; [Ling et al., 2015]; [Süssmuth and Mainz, 2017]). Lipo-tridecapeptides, a class of NRPs, show strong antimicrobial activity against Gram-positive pathogens, including antibiotic-resistant Staphylococcus aureus and Enterococcus spp. ([Barsby et al., 2001], [2006]; [Yang et al., 2016]; [Wu et al., 2019]; [Zhao et al., 2021]). However, many of these lipo-tridecapeptides have shown high ... || Figure 1 Structures of brevibacillins. The red color indicates the more hydrophobic amino acid residues of brevibacillin V, brevibacillin and brevibacillin I relative to brevibacillin 2V. MIC, the minimum inhibitory concentration against Staphylococcus aureus (MRSA). HC50, the 50% human blood cell hemolysis concentration. CC50, the 50% cell (HepG2) toxicity concentration."}, "human red blood cells": {"system": "human red blood cells", "conditions": "Figure 1, ref Zhao et al., 2021; cited from earlier work", "from_the_text": "as §1"}, "[1]": {"conditions": "ref Zhao et al., 2021; cited from earlier work"}, "[2]": {"system": "S. aureus ATCC15975 (MRSA) membrane", "experiment": "DiSC3(5) membrane potential assay", "assay_type": "cell-based, Staphylococcus aureus", "conditions": "2 × MIC", "procedure": "Staphylococcus aureus ATCC15975 (MRSA) was grown to an OD600 of 0.8. The culture was pelleted at 5,000 × g for 5 min and washed three times in 10 mm HEPES with 10 mm glucose (pH 7.2). The cell density was normalized to an OD600 of 0.2, loaded with 2 μm DiSC3(5) dye, and incubated for 20 min in the dark for probe fluorescence to stabilize. After incubation, KCl was added to the cell suspension at a final concentration of 100 mm. Subsequently, the cell suspension was added to a 96-well microplate and incubation for 5 min; after that, antibiotics were added at a final concentration of 2 × MIC. Fluorescence was monitored for 25 min, with the antibiotics added after ~20 s. The excitation and emission wavelengths on the fluorescence spectrometer were adjusted to 622 nm and 670 nm, respectively. Representative examples from three technical replicates are shown."}, "[3]": {"system": "S. aureus ATCC15975 (MRSA)", "experiment": "Time-killing assay", "assay_type": "cell-based, Staphylococcus aureus", "conditions": "MHB, 37°C; for time to complete killing of all cells: 10 × MIC (nisin 40 μg/ml; brevibacillins 20 μg/ml), ≈ 5 × 10^6 cells per ml, 220 rpm, triplicate", "procedure": "This assay was performed according to a previously described procedure ([Ling et al., 2015]; [Zhao et al., 2020b]). An overnight culture of cells [S. aureus ATCC15975 (MRSA)] was diluted 50-fold in MHB and incubated at 37°C with aeration at 220 rpm. Bacteria were grown to an OD600 of 0.5, and then, the concentration of cells was adjusted to ≈ 5 × 10^6 cells per ml. Bacteria were then challenged with nisin (40 μg/ml), brevibacillin (20 μg/ml), brevibacillin V (20 μg/ml), brevibacillin I (20 μg/ml), or brevibacillin 2V (20 μg/ml) in culture tubes at 37°C and 220 rpm (peptides at 10 × MIC, a desirable concentration at the site of infection). Bacteria not treated with peptides were used as negative controls. At desired time points, 200 μl aliquots were taken, centrifuged at 8,000 g for 2 min, and resuspended in 200 μl of MHB. 10-fold serially diluted samples were plated on MHA plates. After incubated at 37°C overnight, colonies were counted and c.f.u. per ml was calculated. Each experiment was performed in triplicate."}, "[4]": {"system": "Staphylococcus aureus (MRSA)", "conditions": "Staphylococcus aureus (MRSA); Figure 1; ref Zhao et al., 2021; cited from earlier work", "from_the_text": "Figure 1 Structures of brevibacillins. The red color indicates the more hydrophobic amino acid residues of brevibacillin V, brevibacillin and brevibacillin I relative to brevibacillin 2V. MIC, the minimum inhibitory concentration against Staphylococcus aureus (MRSA). HC50, the 50% human blood cell hemolysis concentration. CC50, the 50% cell (HepG2) toxicity concentration. […] LUVs-based CF leakage assay is widely used in the studies of the antibiotic mode of action ([Hasper et al., 2004]; [Smith et al., 2008]; [Slootweg et al., 2015]; [Bakhtiary et al., 2017]). Disruption of the vesicle membrane by certain compounds releases CF from the LUVs into the extra-vesicular milieu resulting in increased fluorescence signal (Figure ..."}, "[5]": {"conditions": "ref Varney et al., 2013; Bakhtiary et al., 2017; cited from earlier work", "procedure": "To investigate the role of Lipid II-binding ability of brevibacillins in their membrane disruption capacity, CF leakage assays were performed using LUVs composed of DOPC with or without Lipid II and containing CF at self-quenching concentrations. LUVs-based CF leakage assay is widely used in the studies of the antibiotic mode of action ([Hasper et al., 2004]; [Smith et al., 2008]; [Slootweg et al., 2015]; [Bakhtiary et al., 2017]). Disruption of the vesicle membrane by certain compounds releases CF from the LUVs into the extra-vesicular milieu resulting in increased fluorescence signal (Figure ..."}, "[6]": {"system": "S. aureus ATCC15975 (MRSA)", "experiment": "Spot-on-lawn assay with Lipid II", "assay_type": "cell-based, Staphylococcus aureus", "conditions": "brevibacillins 0.68 μg, nisin and daptomycin 1.36 μg; Lipid II 300 μM, 4 μl, at edge of halo; MHA, 37°C overnight", "procedure": "An overnight cultured S. aureus ATCC15975 (MRSA) was added to 0.6% MHA (w/v, temperature 42°C) at a final concentration of 0.1% (v/v), and then, the mixture was poured to the plates 10 ml for each. The binding of peptide and Lipid II ([Hasper et al., 2006]) was further evaluated by spotting of purified Lipid II (300 μm, 4 μl) to the edge of inhibition halo of antibiotics (brevibacillins, 0.68 μg; nisin and daptomycin, 1.36 μg). Briefly, antibiotics were loaded to the agar plate. After the antibiotic solution drops had dried, purified Lipid II was spotted to the edge (identified by a pre-experiment) of inhibition halo of antibiotics ([Wang et al., 2020]). After the Lipid II solution drops had dried, the plates were transferred to a 37°C incubator for overnight incubation."}, "[7]": {"conditions": "membrane-embedded Lipid II; ref Islam et al., 2012; ‘t Hart et al., 2016; Bakhtiary et al., 2017; Chiorean et al., 2020; cited from earlier work", "procedure": "After confirmation of the fact that brevibacillins bind to Lipid II, an ITC assay was performed to determine the binding affinity of brevibacillins for Lipid II. For this, 2 mol % Lipid II was incorporated into DOPC-based LUVs. […] Nisin, teixobactin, nukacin ISK-1, and lacticin 3147 ..."}, "S. aureus (MRSA)": {"system": "S. aureus (MRSA)", "experiment": "Membrane permeability assay, concentration series (fluorescence microscopy)", "assay_type": "cell-based, Staphylococcus aureus", "conditions": "100 nM and 400 nM, 15 min; ratio of membrane permeabilized cells; three independent experiments; p < 0.05", "procedure": "(§2) Staphylococcus aureus ATCC15975 (MRSA) was grown to an OD600 of 0.8. The culture was pelleted at 5,000 × g for 5 min and washed three times in 10 mm HEPES with 10 mm glucose (pH 7.2). After normalization of the cell density to an OD600 of 0.2 in 10 mm HEPES with 10 mm glucose (pH 7.2), a 2-fold MIC concentration of brevibacillins (4 μg/ml) or nisin (8 μg/ml) was added. At the same time, SYTO® 9 and propidium iodide (LIVE/DEAD Baclight Bacterial Viability Kit, Invitrogen) were added to the above cell suspensions. After incubation at room temperature for 15 min, peptides were removed and washed three times with 10 mm HEPES with 10 mm glucose (pH 7.2). Then, the cell suspensions were loaded on 1.5% agarose pads and analyzed by DeltaVision Elite microscope (Applied Precision; [Zhao and Kuipers, 2021]).\nGraphPad Prism 7.0 was used to fit the data of time-killing assay, DiSC3(5) assay, fluorescence quenching assay, ITC assay, and CF Leakage assay in Figures 3–7. The fluorescence images (ratio of membrane permeabilized cells) were quantified by the software Adobe Photoshop 2021. The Kd values of brevibacillins to Lipid II were calculated using the Nano Analyze Software (Waters LLC). The statistical significance of the data was assessed using Duncan’s multiple range test with the software SPSS Statistics 26; values of p < 0.05 were considered to be statistically significant.\nFigure 7 Brevibacillins disrupt membrane permeability without the need for Lipid II binding. (A), Cartoon schematic of the assay used to assess membrane permeability disruption of brevibacillins. (B), CF releases (%) vs. time graph showing the effects of adding brevibacillins to DOPC-LUVs with 0.1% Lipid II; peptide concentrations were 100 nm; a, when peptides were added; and b, when 20% Triton X-100 added. (C), CF releases (%) vs. time graph showing the effects of adding brevibacillins to LUVs of pure DOPC; peptide concentrations were 100 nm; a, when peptides were added; and b, when 20% Triton X-100 was added. (D), fluorescence microscopic images of S. aureus (MRSA) after have been treated by a series concentrations of brevibacillins and nisin for 15 min. (E), the ratio of membrane permeabilized cells that was quantified by Adobe Photoshop 2021; the data are representative of three independent experiments.\nTo investigate the in vivo membrane disruption capacity of brevibacillin and brevibacillin 2V, a membrane permeability assay was performed with a series of concentrations of antibiotics. Nisin was used as a control."}, "[8]": {"system": "S. aureus ATCC15975 (MRSA)", "experiment": "Fluorescence microscopy, LIVE/DEAD BacLight (SYTO 9/propidium iodide)", "assay_type": "cell-based, Staphylococcus aureus", "conditions": "2 × MIC (brevibacillins 4 μg/ml, nisin 8 μg/ml), 15 min, room temperature", "procedure": "as §2"}, "[9]": {"experiment": "Pyrene-labeled Lipid II fluorescence quenching assay", "assay_type": "binding", "conditions": "50 μM DOPC LUVs with 0.5 mol % pyrene-labeled Lipid II, 20°C, ex 350 nm", "procedure": "The effects of antibiotics on pyrene-labeled Lipid II were measured using 50 μm DOPC-based large unilamellar vesicles (LUVs) containing 0.5 mol % pyrene-labeled Lipid II ([Breukink et al., 2003]). Briefly, the LUVs were added to a quartz cuvette and titrated with nisin, brevibacillin, or brevibacillin 2V with stirring at 20°C. The fluorescence spectra were recorded between 360 and 600 nm (λex350 nm) using a Cary Eclipse Fluorescence Spectrophotometer (Agilent, United States)."}, "[10]": {"experiment": "31P solid-state NMR of Lipid II in liposomes", "assay_type": "binding", "conditions": "DOPC vesicles with 2 mol % Lys-Lipid II, 20 mM HEPES, 100 mM NaCl, pH 8; 200 nmol antibiotic, 100 nmol Lipid II; 500 MHz, 10 kHz MAS, 270 K", "procedure": "Multi-lamellar vesicles of DOPC doped with 2 mol % Lys-Lipid II in buffer (20 mm HEPES, 100 mm NaCl, and pH = 8) were collected by centrifugation (60,000 × g) and loaded into 3.2 mm ssNMR rotors. For 3.2 mm rotors, we used 200 nmol of antibiotic with 100 nmol of Lipid II. The 1D ^31P ssNMR experiments were performed at 500 MHz (^1H frequency) magnetic field using 10 kHz magic angle spinning (MAS) at 270 K sample temperature."}}, "note": "No end group written: not given here.", "data": [{"substance": "Brevibacillin V", "values": [{"measurement": "CC50, 50% cell (HepG2) toxicity concentration", "setting": "HepG2", "value": "9.89 ± 0.67", "unit": "µg/mL"}, {"measurement": "HC50, 50% human blood cell hemolysis concentration", "setting": "human red blood cells", "value": "73.1 ± 1.4", "unit": "mg/L"}, {"measurement": "rank order of calculated hydrophobicity", "setting": "[1]", "value": "brevibacillin I > brevibacillin > brevibacillin V > brevibacillin 2V"}, {"measurement": "speed of membrane permeabilization", "setting": "[2]", "value": "appeared to act faster than brevibacillin 2V and the well-known pore-forming antibiotic nisin"}, {"measurement": "rank order of membrane disruption capacity", "setting": "[2]; correlates with calculated hydrophobicity", "value": "brevibacillin I > brevibacillin > brevibacillin V > brevibacillin 2V"}, {"measurement": "killing kinetics / capacity, in words", "setting": "[3]; 10 × MIC (brevibacillins 20 μg/ml; nisin 40 μg/ml)", "value": "intermediate killing capacity"}, {"measurement": "time to complete killing of all cells", "setting": "[3]", "value": "≤ 2", "unit": "h"}, {"measurement": "MIC", "setting": "[4]", "value": 2, "unit": "µg/mL"}]}, {"substance": "HNP-1: Lipid II-targeting antimicrobial", "values": [{"measurement": "membrane disruption in Lipid II containing and Lipid II lacking LUVs", "setting": "[5]", "value": "cause membrane disruption in both Lipid II containing LUVs and Lipid II lacking LUVs"}]}, {"substance": "daptomycin", "values": [{"measurement": "antimicrobial activity upon addition of purified Lipid II", "setting": "[6]", "value": "kept its antimicrobial activity against S. aureus (MRSA)"}]}, {"substance": "lacticin 3147", "values": [{"measurement": "Kd", "setting": "[7]", "value": 920, "unit": "nM"}, {"measurement": "membrane disruption in Lipid II containing and Lipid II lacking LUVs", "setting": "[5]", "value": "cause membrane disruption in both Lipid II containing LUVs and Lipid II lacking LUVs"}]}, {"substance": "nisin: well-known Lipid II-targeting antibiotic, pore-forming, used as control (ITSISLCTPGCKTGALMGCNMKTATCHCSIHVSK; not fully specified (some residues, bridges); cysteine pairing not given here; UniProt P13068 24-57, looked up) [reference compound]", "values": [{"measurement": "antimicrobial activity upon addition of purified Lipid II", "setting": "[6]", "value": "diminished"}, {"measurement": "Kd", "setting": "[7]", "value": 14.6, "unit": "nM"}, {"measurement": "time to complete killing of all cells", "setting": "[3]", "value": "≤ 4", "unit": "h"}, {"measurement": "membrane permeabilization capacity, comparison", "setting": "S. aureus (MRSA)", "value": "significantly (p < 0.05) higher membrane permeabilization capacity than the brevibacillins"}, {"measurement": "membrane integrity (SYTO 9 / propidium iodide staining)", "setting": "[8]", "value": "turned red, indicative of a compromised membrane"}, {"measurement": "excimer fluorescence (about 490 nm)", "setting": "[9]", "value": "appearance of a fluorescence peak around 490 nm, indicating the formation of excimers"}, {"measurement": "pyrene monomer fluorescence", "setting": "[9]", "value": "clearly induced a decrease of pyrene monomer fluorescence"}]}, {"substance": "vancomycin [reference compound]", "values": [{"measurement": "31P signals of Lipid II pyrophosphate moiety", "setting": "[10]", "value": "no changes observed for the Lipid II pyrophosphate signals"}]}]}
